58 compounds from patent publication US10941143B2, “Imidazo [1,5-a]pyridine compounds and their use” (Alterity Therapeutics Limited, priority 2019, dated 2021) can be followed below.

This assay relates to human neuroblastoma line BE(2)-M17 (M17) cells. As to the kind of experiment: Measurement of Fe efflux from cells. It is filed as cell-based. The settings on record: M17 cells pre-loaded with 57Fe, compound 20 μM for 2 h, percentage increase of Fe in media relative to media without compound, read-out: % Fe Efflux Range. How it is done:
Method I: Measurement of Fe Efflux from Cells
Compounds of the current invention were assessed for their ability to efflux iron (Fe) from a cell using the following protocol.
The human neuroblastoma line BE(2)-M17 (M17) cell cultures were acquired from Sigma Aldrich (Catalogue #: 95011816). M17 Cells were maintained in Opti-MEM reduced serum media supplemented with 10% fetal bovine serum (Bovogen, SFBSF) and passaged twice weekly. Cells were cultured at 37° C. in the presence of 5% CO2. Culture supplies were sourced from Thermo Fisher unless otherwise stated.
A solution of ^57Fe cold isotope was prepared by dissolving ^57Fe metal (>95% enrichment, Trace Sciences International) in concentrated HCl to give a final concentration of 573 mM. From this master solution, a 10 mM working solution was prepared in sterile water. The working solution was used within two months of preparation.
M17 cells were loaded with iron initially by seeding into 48-well plates at a density of 0.15×10^6 cells per well in 0.5 mL media. After 48 h, old media was discarded. Fresh media was supplemented with 20 μM ^57Fe isotope, from the 10 mM ^57Fe working solution. Cells received 0.2 mL of this ^57Fe enriched media and were returned to the incubator for 20 h. The ability of experimental compounds to efflux iron was determined by the dissolution of compounds in DMSO and diluted in Hanks' Balanced Salt Solution (HBSS) for treatment of M17 cells. After ^57Fe incubation, cells were rinsed twice with HBSS and treated with 0.15 mL trial compound for 2 h at a concentration of 20 μM. All assays included a relevant vehicle (0.4%-0.8% DMSO) as well as a positive control (20 μM). Following the treatment period, 0.1 mL of media was collected from cells and the extracellular ^57Fe content was analysed via inductively coupled mass spectrometry (ICP-MS, Agilent 7700x series instrument).
To perform this protocol the following supplies were purchased from Sigma Aldrich: anhydrous dimethyl sulfoxide (DMSO, Catalogue #: 276855), Hanks' Balanced Salt Solution supplemented with 20 mM HEPES and 4.2 mM Sodium Bicarbonate (HBSS, pH: 7.4, Catalogue #: H1387).
After 2 h the Fe levels in the media were measured and the increase determined as a percentage increase relative to the cell media in the absence of the compound.

Turning to `O=[N+]([O-])c1ccccc1-c1nc(-c2ccccc2O)c2ccccn12` [Compound 77], the activation at 20 µM was less than 30%.
For the compound `CN(C)Cc1cccc(-c2nc(-c3cccnc3O)c3ccccn23)c1O` [Compound 168], the activation at 20 µM was less than 30%.
Next, `Oc1cnccc1-c1nc(-c2cccc(F)c2O)n2ccccc12` [Compound 111]: 100 to 150%; `Oc1cccnc1-c1nc(-c2cc(F)cc(F)c2O)n2ccccc12` [Compound 84, 2-(3-(3,5-Difluoro-2-hydroxyphenyl)imidazo[1,5-a]pyridin-1-yl)pyridin-3-ol]: greater than 150%.
The result for `COC(=O)c1ccc(-c2nc(-c3ccccc3O)c3ccccn23)cc1` [Compound 25] reads less than 30%.
The result for `Oc1cccnc1-c1nc(-c2ccc(Cl)cc2)n2ccccc12` [Compound 127] reads less than 30%; that for `COc1cccnc1-c1nc(-c2ccccc2O)n2ccccc12` [Compound 3, 2-(1-(3-Methoxypyridin-2-yl)imidazo[1,5-a]pyridin-3-yl)phenol], 30 to 100%.
As to `Cc1ccc(O)c(-c2nc(-c3ccncc3O)c3cccnn23)c1` [Compound 182], the activation at 20 µM lay within 30 to 100%.
Next, `Cc1cccc(-c2nc(-c3ccccc3O)c3ncccn23)c1O` [Compound 108]: less than 30%; `Oc1cc(F)ccc1-c1nc(-c2cc(F)ccc2O)n2ccccc12` [Compound 51]: less than 30%.
Next, `Oc1cnccc1-c1nc(-c2cc(Cl)ccc2O)n2ccncc12` [Compound 179]: greater than 150%; `Oc1cnccc1-c1nc(-c2ccccc2O)n2cccnc12` [Compound 185]: 100 to 150%; `Cc1ccc(O)c(-c2nc(-c3ccncc3O)c3ncccn23)c1` [Compound 186]: 30 to 100%.
Consider `Cc1ccc(O)c(-c2nc(-c3cnccc3O)c3ccccn23)c1` [Compound 169], for which the activation at 20 µM lay within 30 to 100%.
For `Oc1cccnc1-c1nc(-c2cccc(Cl)c2O)n2ccccc12` [Compound 82], the activation at 20 µM was in the range of 30 to 100%.
Regarding `COc1cccnc1-c1nc(-c2c(O)cccc2F)n2ccccc12` [Compound 52], the activation at 20 µM is less than 30%.
The result for `Oc1cc(F)ccc1-c1nc(-c2c(O)cccc2F)n2ccccc12` [Compound 49] reads less than 30%; that for `Oc1cccc(F)c1-c1nc(-c2cccc(F)c2O)c2ccccn12` [Compound 38], 30 to 100%.
Next, `Oc1cc(F)c(Br)cc1-c1nc(-c2c(O)cccc2Cl)n2ccccc12` [Compound 46]: less than 30%.
The result for `Oc1ccccc1-c1nc(-c2cccnc2O)c2ccccn12` [Compound 141, 3-(3-(2-Hydroxyphenyl)imidazo[1,5-a]pyridin-1-yl)pyridin-2-ol] reads 100 to 150%; that for `Oc1c(F)cccc1-c1nc(-c2cccc(Cl)c2O)n2ccccc12` [Compound 41, 2-Chloro-6-(1-(3-fluoro-2-hydroxyphenyl)imidazo[1,5-a]pyridin-3-yl)phenol], 30 to 100%.
Turning to `Oc1c(F)cccc1-c1nc(-c2cccc(F)c2O)n2ccccc12` [Compound 40], the activation at 20 µM was in the range of 30 to 100%.
Next, `Cc1cccc(-c2nc(-c3ccncc3O)c3cnccn23)c1O` [Compound 177]: greater than 150%; `COc1cccnc1-c1nc(-c2cc(F)ccc2O)n2ccccc12` [Compound 56, 4-Fluoro-2-(1-(3-methoxypyridin-2-yl)imidazo[1,5-a]pyridin-3-yl)phenol]: 30 to 100%; `Oc1ccccc1-c1nc(-c2cc(Cl)cc(Cl)c2)n2ccccc12` [Compound 21]: less than 30%.
Turning to `Oc1cnccc1-c1nc(-c2cc(F)ccc2O)n2ccncc12` [Compound 178], the activation at 20 µM was greater than 150%.
`CN(C)Cc1cccc(-c2nc(-c3ccccc3O)c3ccccn23)c1O` [Compound 124, 2-((Dimethylamino)methyl)-6-(1-(2-hydroxyphenyl)imidazo[1,5-a]pyridin-3-yl)phenol]: the activation at 20 µM was greater than 150%.
With `Oc1c(Cl)cccc1-c1nc(-c2cccc(Br)c2O)c2ccccn12` [Compound 32], the activation at 20 µM lay within 30 to 100%.
The result for `Oc1ccccc1-c1nc(-c2ncccc2O)n2ccccc12` [Compound 95, 2-(1-(2-Hydroxyphenyl)imidazo[1,5-a]pyridin-3-yl)pyridin-3-ol] reads 30 to 100%; that for `Cc1ccc(O)c(-c2nc(-c3cccnc3O)c3ccccn23)c1` [Compound 147, 3-(3-(2-Hydroxy-5-methylphenyl)imidazo[1,5-a]pyridin-1-yl)pyridin-2-ol], 100 to 150%.
Next, `COc1cccnc1-c1nc(-c2cc(Cl)cc(Cl)c2O)n2ccccc12` [Compound 59]: less than 30%.
The result for `Oc1cccnc1-c1nc(-c2cc(Cl)cc(Cl)c2O)n2ccccc12` [Compound 85] reads 30 to 100%.
`COc1cnccc1-c1nc(-c2ccccc2O)c2ccccn12` [Compound 125]: the activation at 20 µM was less than 30%.
The result for `Oc1cc(F)ccc1-c1nc(-c2cccc(Cl)c2O)n2ccccc12` [Compound 63] reads less than 30%; that for `Oc1ccccc1-c1nc(-c2ncccc2O)c2ccccn12` [Compound 4, 2-(3-(2-Hydroxyphenyl)imidazo[1,5-a]pyridin-1-yl)pyridin-3-ol], greater than 150%; that for `Oc1ncccc1-c1nc(-c2cccc(Cl)c2O)n2ccccc12` [Compound 150], 30 to 100%.
The result for `Cc1ccc(O)c(-c2nc(-c3c(O)cccc3F)n3ccccc23)c1` [Compound 87] reads less than 30%; that for `Cc1ccc(O)c(-c2nc(-c3ccccc3O)c3ccccn23)c1` [Compound 17], less than 30%.
Next, `Oc1ccc(Cl)cc1-c1nc(-c2cccnc2O)c2ccccn12` [Compound 149]: 30 to 100%; `COc1ccncc1-c1nc(-c2cc(F)cc(F)c2O)n2ccccc12` [Compound 155]: less than 30%; `N#Cc1ccccc1-c1nc(-c2ccccc2O)c2ccccn12` [Compound 16, 2-(1-(2-Hydroxyphenyl)imidazo[1,5-a]pyridin-3-yl)benzonitrile]: less than 30%.
For `Oc1ccc(Cl)cc1-c1nc(-c2ncccc2O)c2ccccn12` [Compound 92], the activation at 20 µM was in the range of 100 to 150%.
The result for `Oc1ccc(Cl)cc1-c1nc(-c2cccc(F)c2O)c2ccccn12` [Compound 42] reads 30 to 100%.
Next, `Oc1cc(F)c(Br)cc1-c1nc(-c2cccc(F)c2O)n2ccccc12` [Compound 44]: 30 to 100%.
Next, `Oc1cnccc1-c1nc(-c2cccc(F)c2O)n2ccncc12` [Compound 175]: greater than 150%.
For `Oc1cnccc1-c1nc(-c2cc(F)cc(F)c2O)n2ccccc12` [Compound 114, 4-(3-(3,5-Difluoro-2-hydroxyphenyl)imidazo[1,5-a]pyridin-1-yl)pyridin-3-ol], the activation at 20 µM lay in the range of 100 to 150%.
On to `Oc1ccncc1-c1nc(-c2c(O)cccc2Cl)n2ccccc12` [Compound 172], for which the activation at 20 µM was in the range of 30 to 100%.
`COc1cccnc1-c1nc(-c2cc(C)ccc2O)n2ccccc12` [Compound 61]: the activation at 20 µM is 30 to 100%.
The result for `Oc1cccc(F)c1-c1nc(-c2cccc(Br)c2O)c2ccccn12` [Compound 34] reads 30 to 100%.
As for `Oc1ccncc1-c1nc(-c2cccc(Cl)c2O)n2ccccc12` [Compound 171], the activation at 20 µM was 30 to 100%.
Next, `Oc1ccccc1-c1nc(-c2ncccc2O)c2cccnn12` [Compound 120, 2-(7-(2-Hydroxyphenyl)imidazo[1,5-b]pyridazin-5-yl)pyridin-3-ol]: 100 to 150%; `Oc1ccncc1-c1nc(-c2cccc(F)c2O)n2ccccc12` [Compound 162]: 30 to 100%; `Oc1cccc(Cl)c1-c1nc(-c2cccc(F)c2O)c2ccccn12` [Compound 39]: 30 to 100%.
Regarding `Cc1ccc(O)c(-c2nc(-c3ncccc3O)c3ccccn23)c1` [Compound 94], the activation at 20 µM lay in the range of 30 to 100%.
Next, `Oc1ccc(Br)cc1-c1nc(-c2ccccc2)n2ccccc12` [Compound 6]: less than 30%; `Oc1ccccc1-c1nc(-c2ccccc2O)n2ncccc12` [Compound 102, 2,2′-(Imidazo[1,5-b]pyridazine-5,7-diyl)diphenol]: less than 30%.
For `Oc1ccccc1-c1nc(-c2cccc(F)c2O)c2ccccn12` [Compound 37], the activation at 20 µM was less than 30%.
Consider `Oc1ccccc1-c1nc(-c2cc(F)cc(F)c2O)n2ccccc12` [Compound 23], for which the activation at 20 µM is less than 30%.
